Reference: patent US12295997B2, “Prostate neoantigens and their uses” (Janssen Biotech, Inc., priority 2020, dated 2025)

Tested on: CD8+ and CD4+ T cells (autologous CD3+ Pan-T cells isolated from human normal PBMCs)
Assay: Endogenous autologous normal donor restimulation assay (Ad5-transduced CD1c+ dendritic cells, TNFα/IFNγ flow cytometry)
Type: cell-based
Conditions: Table 27, endogenous expression, peptide pool restimulation, highest across sixteen normal donors
Description: CD1c+ Dendritic Cells (DC) isolated from human normal PBMCs were thawed using media (IMDM (Gibco) supplemented with glutamine, HEPES, 5% human serum (Sigma), and 1×Pen-Strep). DC cells were resuspended in media supplemented with IL-4 (Peprotech, 80 ng/mL) and GM-CSF (Gibco, 80 ng/mL), plated in 6 well microplates, and rested overnight at 37° C. (5% CO2). The following day, DC cells were counted and plated in a 96 well round bottom microplate at a concentration of 30,000 viable cells per well. Ad5 vectors (Vector Biolabs) were dilute in media to an MOI (Multiplicity Of Infection) of 5000 based on Plaque Forming Units. Ad5 vectors for the CEF pool and a “null” were used as controls. DCs were transduced with Ad5 vectors overnight at 37° C. (5% CO2). The following day, the Ad5 vectors were washed off the plate by three sequential centrifugation/aspiration steps using sterile Phosphate Buffered Saline. After the final wash, transduced DCs were resuspended in 100 μL media. Autologous CD3+ Pan-T cells isolated from human normal PBMCs were thawed using media. Pan-T cells were added to the irradiated DCs at 300,000 viable cells per well (100 μL/well). Human IL-15 (Peprotech) was added to all wells at final concentration of 10 ng/mL.
Plates were incubated at 37° C. (5% CO2) for a total of 12 days. Media was refreshed every 2-3 days with IL-15 (10 ng/mL final concentration) and IL-2 (R&D systems, 10 IU/mL final concentration). On day 11 lyophilized peptides (15-mer overlapping peptides) were solubilized in 100% DMSO and pooled by neoantigen to between 5 mg/mL and 20 mg/mL. Neoantigen peptides pools were added to cells for a final concentration of 2.5 μg/mL to 10 μg/mL. CEF Peptide Pool “Plus” (Cellular Technologies, Ltd.) was utilized as a positive control and DMSO at the same final concentration as the experimental peptides was utilized as a negative control. Protein Inhibitor Cocktail (eBioscience) was added to every well and plate was incubated overnight at 37° C. (5% CO2).
On day 12, cells were stained for intracellular flow cytometry analysis. The cells were washed with PBS and stained with Live/Dead Fixable Aqua Dead Cell stain (Thermo-Fisher). Following the live/dead stain, cells were blocked using Biotin-Free Fc Receptor Blocker (Accurate Chemical & Scientific Corp). Extracellular cellular flow panel ([…] per well in 50 μL) consisted of CD3 PerCP-Cy5.5 (Biolegend), CD4 BV421 (Biolegend), and CD8 APC-Cy7 (Biolegend). After extracellular staining, cells were fixed using Foxp3/fTranscription Factor Staining Buffer Set (eBioscience) and stained for intracellular proteins (1:50 dilution) using TNFα FITC (R&D Systems) and IFNγ BV785 (Biolegend). Cells were washed and resuspended in stain buffer and analyzed using a BD Celesta flow cytometer.
Flow cytometry cell staining analysis was completed using FlowJo v10. Cells were gated on live, singlet, CD3+ cells. The CD8+ and CD4+ T cells were analyzed for TNFα/IFNγ expression and the frequency of double positive TNFα/IFNγ CD8+ and the frequency of double positive TNFα/IFNγ CD4+ T cells were recorded. Responses were assessed to be positive when the frequency of double positive TNFα/IFNγ CD8+ or TNFα/IFNγ CD4+ T cells due to stimulation with an experimental peptide pool was increased greater than or equal to 3-fold over the DMSO only negative control for that donor and at least 0.01%.
For three of the neoantigens, an Ad5 vector was designed to transduce normal Dendritic cells with the neoantigens. This assay assessed the ability of the endogenously expressed and presented neoantigens to activate autologous T cells following overlapping 15-mer peptide pools restimulation using the endogenous autologous normal donor restimulation assay described in Example 1 utilizing TNFα and IFNγ production by CD8^+ and CD4^+ T cells as a readout. […] Sixteen donors were used to assess endogenous immunogenicity.

Sequence: YEAGMTLGGKILFFLFLLLPLSPFSLIF (listed as Homo sapiens) [Neoantigen P87]
- Maximum Fold Change Over Background CD4+ cells: 2.41
- Maximum Fold Change Over Background CD8+ cells: 2.47
- Maximum Frequency of TNFα/IFNγ Double Positive CD4+ T cells: 0.079
- Maximum Frequency of TNFα/IFNγ Double Positive CD8+ T cells: 0.39
